Measured values as given in patent US11053204B2, “Pyrimidinyloxy benzene derivatives as herbicides” (FMC Corporation, priority 2015, dated 2021).

Assays:
Format in all cases: in vivo
[1] = test system: johnsongrass (Sorghum halepense); experiment: Test C preemergence, plant response rating
kochia (Kochia scoparia) = experiment: Test C preemergence, plant response rating
[2] = test system: wild poinsettia (Euphorbia heterophylla); experiment: Test C preemergence, plant response rating
[3] = test system: pigweed, palmer (palmer pigweed, Amaranthus palmeri); experiment: Test C preemergence, plant response rating
[4] = test system: oat, wild (wild oat Avena fatua); experiment: Test C preemergence, plant response rating
[5] = test system: Canada thistle (Cirsium arvense); experiment: Test C postemergence, plant response rating; conditions: for Canada Thistle plant response rating: scale 0 to 100 (0 no effect, 100 complete control)
In short: (§1)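 After sowing in loam–sand blend or silt loam, pots were sprayed preemergence; separately grown 1- to 4-leaf plants were sprayed postemergence. Following 13 to 15 d under greenhouse conditions, injury was rated visually on a 0 to 100 scale.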

[6] = test system: surinam grass (Brachiaria decumbens); experiment: Test C postemergence, plant response rating
In short: as §1

[7] = test system: field violet (Viola arvensis); experiment: Test C postemergence, plant response rating; conditions: for Field Violet plant response rating: scale 0 to 100 (0 no effect, 100 complete control)
In short: as §1

[8] = test system: field poppy (Papaver rhoeas); experiment: Test C postemergence, plant response rating; conditions: for Field Poppy plant response rating: scale 0 to 100 (0 no effect, 100 complete control)
In short: as §1

[9] = test system: pigweed, palmer (palmer pigweed, Amaranthus palmeri); experiment: Test C postemergence, plant response rating; conditions: for Pigweed, Palmer plant response rating: scale 0 to 100 (0 no effect, 100 complete control)
In short: as §1

[10] = test system: buckwheat, wild (wild buckwheat, Polygonum convolvulus); experiment: Test C postemergence, plant response rating; conditions: for Buckwheat, Wild plant response rating: scale 0 to 100 (0 no effect, 100 complete control)
In short: as §1

[11] = test system: geranium, cutleaf (cutleaf geranium, Geranium dissectum); experiment: Test C postemergence, plant response rating; conditions: for Geranium, Cutleaf plant response rating: scale 0 to 100 (0 no effect, 100 complete control)
In short: as §1

[12] = test system: johnsongrass (Sorghum halepense); experiment: Test C postemergence, plant response rating; conditions: for Johnsongrass plant response rating: scale 0 to 100 (0 no effect, 100 complete control)
In short: as §1

[13] = test system: nightshade (eastern black nightshade, Solanum ptycanthum); experiment: Test C postemergence, plant response rating; conditions: for Nightshade plant response rating: scale 0 to 100 (0 no effect, 100 complete control)
In short: as §1

[14] = test system: speedwell (bird's-eye speedwell, Veronica persica); experiment: Test C postemergence, plant response rating; conditions: for Speedwell plant response rating: scale 0 to 100 (0 no effect, 100 complete control)
In short: as §1

[15] = test system: windgrass (Apera spica-venti); experiment: Test C postemergence, plant response rating
In short: as §1

[16] = test system: wild poinsettia (Euphorbia heterophylla); experiment: Test C postemergence, plant response rating; conditions: for Poinsettia, Wild plant response rating: scale 0 to 100 (0 no effect, 100 complete control)
In short: as §1

[17] = test system: wild mustard (Sinapis arvensis); experiment: Test C postemergence, plant response rating; conditions: for Mustard, Wild plant response rating: scale 0 to 100 (0 no effect, 100 complete control)
In short: as §1

[18] = test system: surinam grass (Brachiaria decumbens); experiment: Test C preemergence, plant response rating
[19] = test system: galium (catchweed bedstraw, Galium aparine); experiment: Test C preemergence, plant response rating
[20] = 125 g ai/ha, scale 0 to 100 (0 no effect, 100 complete control)

CCCC(=O)c1c(Oc2ncc(Cl)cn2)cccc1C(F)(F)F [Compound 136]
Plant response rating, Johnsongrass ([1]; 31 g ai/ha, scale 0 to 100): 25
Plant response rating, Johnsongrass ([1]; 62 g ai/ha, scale 0 to 100): 35
Plant response rating, Johnsongrass ([1]; 125 g ai/ha, scale of 0 to 100): 70
Plant response rating, Kochia (kochia (Kochia scoparia); 31 g ai/ha, scale 0 to 100): 80
Plant response rating, Kochia (kochia (Kochia scoparia); 62 g ai/ha, scale 0 to 100): 85
Plant response rating, Kochia (kochia (Kochia scoparia); 125 g ai/ha, scale of 0 to 100): 98
Plant response rating, Poinsettia, Wild ([2]; 31 g ai/ha, scale 0 to 100): 5
Plant response rating, Poinsettia, Wild ([2]; 62 g ai/ha, scale 0 to 100): 25
Plant response rating, Poinsettia, Wild ([2]; 125 g ai/ha, scale of 0 to 100): 50
Plant response rating, Pigweed, Palmer ([3]; 31 g ai/ha, scale 0 to 100): 75
Plant response rating, Pigweed, Palmer ([3]; 62 g ai/ha, scale 0 to 100): 100
Plant response rating, Pigweed, Palmer ([3]; 125 g ai/ha, scale of 0 to 100): 100
Plant response rating, Oat, Wild ([4]; 31 g ai/ha, scale 0 to 100): 0
Plant response rating, Oat, Wild ([4]; 62 g ai/ha, scale 0 to 100): 5
Plant response rating, Oat, Wild ([4]; 125 g ai/ha, scale of 0 to 100): 45
Plant response rating, Canada Thistle ([5]; 16 g ai/ha, scale of 0 to 100): 65
Plant response rating, Canada Thistle ([5]; 31 g ai/ha, scale 0 to 100): 75
Canada Thistle plant response rating ([5]; 62 g ai/ha): 85
Canada Thistle plant response rating ([5]; 125 g ai/ha): 85
Plant response rating, Surinam Grass ([6]; 16 g ai/ha, scale of 0 to 100): 5
Plant response rating, Surinam Grass ([6]; 31 g ai/ha, scale 0 to 100): 5
Surinam Grass plant response rating [6, 20]: 10
Plant response rating, Field Violet ([7]; 16 g ai/ha, scale of 0 to 100): 85
Plant response rating, Field Violet ([7]; 31 g ai/ha, scale 0 to 100): 90
Field Violet plant response rating ([7]; 62 g ai/ha): 95
Field Violet plant response rating ([7]; 125 g ai/ha): 100
Plant response rating, Field Poppy ([8]; 16 g ai/ha, scale of 0 to 100): 65
Plant response rating, Field Poppy ([8]; 31 g ai/ha, scale 0 to 100): 85
Field Poppy plant response rating ([8]; 62 g ai/ha): 80
Field Poppy plant response rating ([8]; 125 g ai/ha): 90
Plant response rating, Pigweed, Palmer ([9]; 16 g ai/ha, scale of 0 to 100): 50
Plant response rating, Pigweed, Palmer ([9]; 31 g ai/ha, scale 0 to 100): 55
Pigweed, Palmer plant response rating ([9]; 62 g ai/ha): 70
Pigweed, Palmer plant response rating ([9]; 125 g ai/ha): 70
Plant response rating, Buckwheat, Wild ([10]; 16 g ai/ha, scale of 0 to 100): 50
Plant response rating, Buckwheat, Wild ([10]; 31 g ai/ha, scale 0 to 100): 60
Buckwheat, Wild plant response rating ([10]; 62 g ai/ha): 90
Buckwheat, Wild plant response rating ([10]; 125 g ai/ha): 80
Plant response rating, Geranium, Cutleaf ([11]; 16 g ai/ha, scale of 0 to 100): 15
Plant response rating, Geranium, Cutleaf ([11]; 31 g ai/ha, scale 0 to 100): 25
Geranium, Cutleaf plant response rating ([11]; 62 g ai/ha): 50
Geranium, Cutleaf plant response rating ([11]; 125 g ai/ha): 45
Plant response rating, Johnsongrass ([12]; 16 g ai/ha, scale of 0 to 100): 5
Plant response rating, Johnsongrass ([12]; 31 g ai/ha, scale 0 to 100): 5
Johnsongrass plant response rating ([12]; 62 g ai/ha): 10
Johnsongrass plant response rating ([12]; 125 g ai/ha): 15
Plant response rating, Nightshade ([13]; 16 g ai/ha, scale of 0 to 100): 70
Plant response rating, Nightshade ([13]; 31 g ai/ha, scale 0 to 100): 75
Nightshade plant response rating ([13]; 62 g ai/ha): 70
Nightshade plant response rating ([13]; 125 g ai/ha): 80
Plant response rating, Speedwell ([14]; 16 g ai/ha, scale of 0 to 100): 75
Plant response rating, Speedwell ([14]; 31 g ai/ha, scale 0 to 100): 80
Speedwell plant response rating ([14]; 62 g ai/ha): 80
Speedwell plant response rating ([14]; 125 g ai/ha): 85
Plant response rating, Windgrass ([15]; 16 g ai/ha, scale of 0 to 100): 5
Plant response rating, Windgrass ([15]; 31 g ai/ha, scale 0 to 100): 10
Windgrass plant response rating [15, 20]: 30
Plant response rating, Poinsettia, Wild ([16]; 16 g ai/ha, scale of 0 to 100): 40
Plant response rating, Poinsettia, Wild ([16]; 31 g ai/ha, scale 0 to 100): 65
Poinsettia, Wild plant response rating ([16]; 62 g ai/ha): 70
Poinsettia, Wild plant response rating ([16]; 125 g ai/ha): 75
Plant response rating, Mustard, Wild ([17]; 16 g ai/ha, scale of 0 to 100): 85
Plant response rating, Mustard, Wild ([17]; 31 g ai/ha, scale 0 to 100): 95
Mustard, Wild plant response rating ([17]; 62 g ai/ha): 85
Mustard, Wild plant response rating ([17]; 125 g ai/ha): 100
Plant response rating, Surinam Grass ([18]; 31 g ai/ha, scale 0 to 100): 25
Plant response rating, Surinam Grass ([18]; 62 g ai/ha, scale 0 to 100): 10
Plant response rating, Surinam Grass ([18]; 125 g ai/ha, scale of 0 to 100): 100
Plant response rating, Galium ([19]; 31 g ai/ha, scale 0 to 100): 0
Plant response rating, Galium ([19]; 62 g ai/ha, scale 0 to 100): 50
Plant response rating, Galium ([19]; 125 g ai/ha, scale of 0 to 100): 90
